Source: ChEMBL document CHEMBL3046801, “Synthesis of 2-R1-2-(4-(2-fluoroethoxy)benzamido)acetate as potential PET imaging agents” (Med Chem Res, 2012)

Columns and labels:
[1] = system: Lung; experiment: Biodistribution in tumor bearing Mus musculus KM (mouse) lung at 3.7 MBq, iv measured at 5 min by microPET imaging analysis; assay type: ADME, organism-based; conditions: in vivo
[2] = system: Brain; experiment: Biodistribution in tumor bearing Mus musculus KM (mouse) brain at 3.7 MBq, iv by microPET imaging analysis; assay type: ADME, organism-based; conditions: in vivo, TDE = time-dependent effect
[3] = Chemical stability in acetonitrile at 60 degC up to 30 min by HPLC analysis; assay type: physicochemical; conditions: 0.5 h
[4] = system: Kidney; experiment: Biodistribution in tumor bearing Mus musculus KM (mouse) kidney at 3.7 MBq, iv measured at 15 min by microPET imaging analysis; assay type: ADME, organism-based; conditions: in vivo, 0.25 h
[5] = Octanol-PBS partition coefficient of the compound at pH 7.4 by gamma counter; assay type: physicochemical; conditions: read-out: log KOW
[6] = system: Liver; experiment: Biodistribution in tumor bearing Mus musculus KM (mouse) liver at 3.7 MBq, iv by microPET imaging analysis; assay type: ADME, organism-based; conditions: in vivo, TDE = time-dependent effect
[7] = system: Liver; experiment: Clearance in tumor-bearing Mus musculus KM (mouse) liver at 3.7 MBq, iv measured at 60 min; assay type: ADME, organism-based; conditions: in vivo, 1 h
[8] = Chemical stability in sodium chloride up to 2 hr by HPLC analysis; assay type: physicochemical
[9] = system: Tumour; experiment: Biodistribution in tumor of Mus musculus KM (mouse) at 3.7 MBq, iv measured at 15 min by microPET imaging analysis; assay type: ADME, organism-based, Neoplasm; conditions: in vivo, 0.25 h
[10] = system: Blood; experiment: Biodistribution in tumor bearing Mus musculus KM (mouse) blood at 3.7 MBq, iv by microPET imaging analysis; assay type: ADME, organism-based; conditions: in vivo, TDE = time-dependent effect
[11] = system: Brain; experiment: Biodistribution in tumor bearing Mus musculus KM (mouse) brain at 3.7 MBq, iv measured at 5 min by microPET imaging analysis; assay type: ADME, organism-based; conditions: in vivo
[12] = system: Nucleic Acid; experiment: Ratio of drug uptake in tumor to muscle in Mus musculus KM (mouse) at 3.7 MBq, iv at 60 min; assay type: ADME, organism-based; conditions: in vivo, 1 h
[13] = system: Muscle tissue; experiment: Biodistribution in tumor bearing Mus musculus KM (mouse) muscle at 3.7 MBq, iv by microPET imaging analysis; assay type: ADME, organism-based; conditions: in vivo, TDE = time-dependent effect
[14] = system: Heart; experiment: Biodistribution in tumor bearing Mus musculus KM (mouse) heart at 3.7 MBq, iv measured at 60 min by microPET imaging analysis; assay type: ADME, organism-based; conditions: in vivo, 1 h
[15] = system: Tumour; experiment: Biodistribution in tumor of Mus musculus KM (mouse) at 3.7 MBq, iv measured at 60 min by microPET imaging analysis; assay type: ADME, organism-based, Neoplasm; conditions: in vivo, 1 h
[16] = system: Heart; experiment: Biodistribution in tumor bearing Mus musculus KM (mouse) heart at 3.7 MBq, iv measured at 120 min by microPET imaging analysis; assay type: ADME, organism-based; conditions: in vivo, 2 h
[17] = system: Nucleic Acid; experiment: Ratio of drug uptake in tumor to muscle in Mus musculus KM (mouse) at 3.7 MBq, iv at 120 min; assay type: ADME, organism-based; conditions: in vivo, 2 h
[18] = system: Blood; experiment: Biodistribution in tumor bearing Mus musculus KM (mouse) blood at 3.7 MBq, iv measured at 30 min by microPET imaging analysis; assay type: ADME, organism-based; conditions: in vivo, 0.5 h
[19] = system: Liver; experiment: Biodistribution in tumor bearing Mus musculus KM (mouse) liver at 3.7 MBq, iv measured at 5 min by microPET imaging analysis; assay type: ADME, organism-based; conditions: in vivo
[20] = system: Tumour; experiment: Biodistribution in tumor of Mus musculus KM (mouse) at 3.7 MBq, iv by microPET imaging analysis; assay type: ADME, organism-based, Neoplasm; conditions: in vivo, TDE = time-dependent effect
[21] = system: Nucleic Acid; experiment: Ratio of drug uptake in tumor to muscle in Mus musculus KM (mouse) at 3.7 MBq, iv at 5 min; assay type: ADME, organism-based; conditions: in vivo
[22] = system: Tumour; experiment: Biodistribution in tumor of Mus musculus KM (mouse) at 3.7 MBq, iv measured at 5 min by microPET imaging analysis; assay type: ADME, organism-based, Neoplasm; conditions: in vivo
[23] = system: Brain; experiment: Biodistribution in tumor bearing Mus musculus KM (mouse) brain at 3.7 MBq, iv measured at 120 min by microPET imaging analysis; assay type: ADME, organism-based; conditions: in vivo, 2 h
[24] = system: Heart; experiment: Biodistribution in tumor bearing Mus musculus KM (mouse) heart at 3.7 MBq, iv measured at 30 min by microPET imaging analysis; assay type: ADME, organism-based; conditions: in vivo, 0.5 h
[25] = system: Liver; experiment: Biodistribution in tumor bearing Mus musculus KM (mouse) liver at 3.7 MBq, iv measured at 15 min by microPET imaging analysis; assay type: ADME, organism-based; conditions: in vivo, 0.25 h
[26] = system: Heart; experiment: Biodistribution in tumor bearing Mus musculus KM (mouse) heart at 3.7 MBq, iv measured at 5 min by microPET imaging analysis; assay type: ADME, organism-based; conditions: in vivo
[27] = system: Lung; experiment: Biodistribution in tumor bearing Mus musculus KM (mouse) lung at 3.7 MBq, iv measured at 60 min by microPET imaging analysis; assay type: ADME, organism-based; conditions: in vivo, 1 h
[28] = system: Spleen; experiment: Biodistribution in tumor bearing Mus musculus KM (mouse) spleen at 3.7 MBq, iv measured at 15 min by microPET imaging analysis; assay type: ADME, organism-based; conditions: in vivo, 0.25 h
[29] = Metabolic stability in serum after 1 hr by HPLC analysis; assay type: ADME
[30] = system: Kidney; experiment: Biodistribution in tumor bearing Mus musculus KM (mouse) kidney at 3.7 MBq, iv measured at 60 min by microPET imaging analysis; assay type: ADME, organism-based; conditions: in vivo, 1 h
[31] = system: Kidney; experiment: Biodistribution in tumor bearing Mus musculus KM (mouse) kidney at 3.7 MBq, iv measured at 5 min by microPET imaging analysis; assay type: ADME, organism-based; conditions: in vivo
[32] = system: Liver; experiment: Biodistribution in tumor bearing Mus musculus KM (mouse) liver at 3.7 MBq, iv measured at 30 min by microPET imaging analysis; assay type: ADME, organism-based; conditions: in vivo, 0.5 h
[33] = system: Brain; experiment: Biodistribution in tumor bearing Mus musculus KM (mouse) brain at 3.7 MBq, iv measured at 30 min by microPET imaging analysis; assay type: ADME, organism-based; conditions: in vivo, 0.5 h
[34] = system: Kidney; experiment: Clearance in tumor-bearing Mus musculus KM (mouse) kidney at 3.7 MBq, iv measured at 60 min; assay type: ADME, organism-based; conditions: in vivo, 1 h
[35] = system: Kidney; experiment: Biodistribution in tumor bearing Mus musculus KM (mouse) kidney at 3.7 MBq, iv by microPET imaging analysis; assay type: ADME, organism-based; conditions: in vivo, TDE = time-dependent effect
[36] = system: Muscle tissue; experiment: Biodistribution in tumor bearing Mus musculus KM (mouse) muscle at 3.7 MBq, iv measured at 120 min by microPET imaging analysis; assay type: ADME, organism-based; conditions: in vivo, 2 h
[37] = system: Blood; experiment: Biodistribution in tumor bearing Mus musculus KM (mouse) blood at 3.7 MBq, iv measured at 120 min by microPET imaging analysis; assay type: ADME, organism-based; conditions: in vivo, 2 h
[38] = system: Tumour; experiment: Biodistribution in tumor of Mus musculus KM (mouse) at 3.7 MBq, iv measured at 120 min by microPET imaging analysis; assay type: ADME, organism-based, Neoplasm; conditions: in vivo, 2 h
[39] = system: Heart; experiment: Biodistribution in tumor bearing Mus musculus KM (mouse) heart at 3.7 MBq, iv by microPET imaging analysis; assay type: ADME, organism-based; conditions: in vivo, TDE = time-dependent effect
[40] = system: Liver; experiment: Biodistribution in tumor bearing Mus musculus KM (mouse) liver at 3.7 MBq, iv measured at 120 min by microPET imaging analysis; assay type: ADME, organism-based; conditions: in vivo, 2 h
[41] = system: Kidney; experiment: Biodistribution in tumor bearing Mus musculus KM (mouse) kidney at 3.7 MBq, iv measured at 30 min by microPET imaging analysis; assay type: ADME, organism-based; conditions: in vivo, 0.5 h
[42] = system: Lung; experiment: Biodistribution in tumor bearing Mus musculus KM (mouse) lung at 3.7 MBq, iv measured at 30 min by microPET imaging analysis; assay type: ADME, organism-based; conditions: in vivo, 0.5 h
[43] = system: Blood; experiment: Biodistribution in tumor bearing Mus musculus KM (mouse) blood at 3.7 MBq, iv measured at 15 min by microPET imaging analysis; assay type: ADME, organism-based; conditions: in vivo, 0.25 h
[44] = system: Kidney; experiment: Biodistribution in tumor bearing Mus musculus KM (mouse) kidney at 3.7 MBq, iv measured at 120 min by microPET imaging analysis; assay type: ADME, organism-based; conditions: in vivo, 2 h

- Drug uptake [1]: 5.09 % ID/g
- Drug uptake [2]: tde
- Stability [3]: Stable
- Drug uptake [4]: 4.07 % ID/g
- logD [5]: 0.57
- Drug uptake [6]: tde
- CLH [7]: 91%
- Stability [8]: Stable
- Drug uptake [9]: 2.3 % ID/g
- Drug uptake [10]: tde
- Drug uptake [11]: 1.51 % ID/g
- Ratio [12]: 2.8
- Drug uptake [13]: tde
- Drug uptake [14]: 0.91 % ID/g
- Drug uptake [15]: 1.48 % ID/g
- Drug uptake [16]: 0.77 % ID/g
- Ratio [17]: 1.03
- Drug uptake [18]: 1.28 % ID/g
- Drug uptake [19]: 4.19 % ID/g
- Drug uptake [20]: tde
- Ratio [21]: 1.05
- Drug uptake [22]: 2.12 % ID/g
- Drug uptake [23]: 0.6 % ID/g
- Drug uptake [24]: 0.95 % ID/g
- Drug uptake [25]: 2.11 % ID/g
- Drug uptake [26]: 2.64 % ID/g
- Drug uptake [27]: 0.87 % ID/g
- Drug uptake [28]: 1.19 % ID/g
- Stability [29]: Stable
- Drug uptake [30]: 0.97 % ID/g
- Drug uptake [31]: 7.25 % ID/g
- Drug uptake [32]: 1.08 % ID/g
- Drug uptake [33]: 0.51 % ID/g
- CL [34]: 97%
- Drug uptake [35]: tde
- Drug uptake [36]: 1.17 % ID/g
- Drug uptake [37]: 0.85 % ID/g
- Drug uptake [38]: 1.21 % ID/g
- Drug uptake [39]: tde
- Drug uptake [40]: 0.68 % ID/g
- Drug uptake [41]: 1.77 % ID/g
- Drug uptake [42]: 1.32 % ID/g
- Drug uptake [43]: 2.17 % ID/g
- Drug uptake [44]: 0.65 % ID/g
SMILES: COC(=O)CNC(=O)c1ccc(OCC[18F])cc1 [[18F]FEBA]
